The values below come from ChEMBL document CHEMBL1137385, “Macrocyclic inhibitors of beta-secretase: functional activity in an animal model” (J Med Chem, 2006).

SMILES strings stand for the structures. Where only a bound is given, the exact number is not on record here.

As a reminder, the IC50 is the concentration that inhibits the measured activity by half. High values mean weaker potency in that assay, low ones greater potency in that assay. One may read the Papp as a coefficient for how fast a substance crosses the barrier.

Data set [1] has as its target T1, Beta-secretase 1 (Homo sapiens, UniProt P56817). As to the kind of experiment: Inhibition of BACE1 at pH 4.5.
Data set [2] addresses T1, Beta-secretase 1. As to the kind of experiment: Inhibition of BACE1 in HEK293T cells. The data set is classed as cell-based, HEK-293T.
Data set [3] in a line: Apparent permeability in porcine LLC-PK1 cells. Format: ADME, cell-based, Sus scrofa. Conditions: pig.
Data set [4] concerns Mus musculus. Briefly: Ratio of drug level in brain against plasma in C57/BL6 APP-YAC mouse model at 100 mg/kg, iv. The data set is classed as ADME, organism-based, C57Bl/6. Also on record: dose 100 mg/kg, route intravenous.
The test system of data set [5] is Mus musculus. As to the kind of experiment: Drug level in brain of C57/BL6 APP-YAC mouse model at 100 mg/kg, iv. Format: ADME, organism-based, C57Bl/6. Set-up: dose 100 mg/kg, route intravenous. The following applies: in vivo, read-out: Drug uptake.

T1 sequence (P56817 whole entry): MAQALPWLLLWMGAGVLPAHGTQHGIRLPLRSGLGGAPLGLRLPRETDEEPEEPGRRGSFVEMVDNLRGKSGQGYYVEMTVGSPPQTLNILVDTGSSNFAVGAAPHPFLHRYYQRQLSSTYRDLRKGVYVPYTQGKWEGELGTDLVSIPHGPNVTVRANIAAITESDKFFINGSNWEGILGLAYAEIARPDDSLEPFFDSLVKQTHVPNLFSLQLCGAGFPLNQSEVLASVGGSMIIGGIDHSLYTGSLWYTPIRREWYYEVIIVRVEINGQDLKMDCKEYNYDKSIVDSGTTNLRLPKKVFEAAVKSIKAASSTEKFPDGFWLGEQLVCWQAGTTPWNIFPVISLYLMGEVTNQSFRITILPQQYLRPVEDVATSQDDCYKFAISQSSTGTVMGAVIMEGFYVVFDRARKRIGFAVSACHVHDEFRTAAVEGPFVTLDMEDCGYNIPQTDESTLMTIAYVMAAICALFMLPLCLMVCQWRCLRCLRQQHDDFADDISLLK

In turn, `CC[C@H](NCC1Cc2cccc(c2)CCCCCc2cc(cc(N(C)S(C)(=O)=O)c2)C(=O)N1)C(=O)NCC(C)C` (stereo partly drawn) yielded an IC50 against Beta-secretase 1 [1] of 1100 nM.
Take `CC[C@H](NCC1Cc2cccc(c2)CCCCc2cc(cc(N(C)S(C)(=O)=O)c2)C(=O)N1)C(=O)NCC(C)C` (stereo partly drawn): the IC50 at Beta-secretase 1 [2] was found to be 1140 nM; against Beta-secretase 1 [1], 90 nM. Also, in data set [3], the Papp stood at 19 ×10⁻⁶ cm/s.
`CNC(=O)c1cc(C(=O)NC(CO)Cc2cccc(OC)c2)cc(N(C)S(C)(=O)=O)c1` (stereo not drawn) had an IC50 against Beta-secretase 1 [1] greater than 100000 nM.
With `CC[C@H](NCC1Cc2cccc(c2)OCCNC(=O)c2cc(cc(N(C)S(C)(=O)=O)c2)C(=O)N1)C(=O)NCC(C)C` (stereo partly drawn), the half-inhibitory concentration (IC50) was 5400 nM against Beta-secretase 1 [2] and 32 nM against Beta-secretase 1 [1]. The Papp in data set [3] is 0.5 ×10⁻⁶ cm/s.
Consider `CCCC[C@H](NC[C@@H]1Cc2cccc(c2)CCCCc2cc(cc(N(CCC)S(C)(=O)=O)c2)C(=O)N1)C(=O)NCC(C)C`, for which the IC50 against Beta-secretase 1 [2] amounted to 76 nM; at Beta-secretase 1 [1], 4 nM. In addition, the BPR in the data set on Mus musculus [4] is reported as 20%. The concentration in the data set on Mus musculus [5] is 1100 nM. Moreover, the apparent permeability (Papp) in data set [3] worked out at 13 ×10⁻⁶ cm/s.
